Assay: Reactivity of valsartan under EMR curing conditions
Assay type: physicochemical
Details: mixed with dextramate, PEGDA, Irgacure; cured for 10 minutes
Experimental: Dextramate (24.2 mL of a 23.1 w/w % solution), PEGDA (16.3 mL of a 8.6 w/w % solution), Irgacure (14 mL of a 0.5 w/w % solution), and valsartan (2.82 mL or 1.41 mL of a 24.8 w/w % solution or 2.82 mL of a 1:10 dilution of a 24.8 w/w % solution) are mixed together. The mixture is cured for 10 minutes. After curing, 100 mL of dH2O is added to the cured product to create a swelled gel.

- reactivity under the curing conditions: does not exhibit reactivity
Compound: CCCCC(=O)N(Cc1ccc(-c2ccccc2-c2nnn[nH]2)cc1)[C@H](C(=O)O)C(C)C [valsartan]
